Values quoted from earlier work, collected in patent publication US20230228766A1, “SERUM BIOMARKERS FOR PREDICTING AND PREVENTING HEMORRHAGIC STROKE” (Texas Tech University System, priority 2020, published 2023).

Conditions: free PRG in blood

half-life of free, active form in blood: 5 to 10 min
Structure (SMILES): CC(=O)[C@H]1CC[C@H]2[C@@H]3CCC4=CC(=O)CC[C@]4(C)[C@H]3CC[C@]12C [PRG, progesterone]
